# Reference: patent US8691828B2, “Thienopyrimidine as CDC7 kinase inhibitors” (Takeda Pharmaceutical Company Limited, priority 2009, dated 2014)
# Experiments:
# [1] = test system: Colo205 cells; assay: Determination of cell proliferation inhibitory activity (Cell Titer-Glo Luminescent Cell Viability Assay); type: cell-based; conditions: Homo sapiens, COLO 205, 72 h, test compound 1 μM, incubation for 3 days, cellular ATP content, read-out: Inhibitory rate (%) at 1 μM
# Experimental: Cell proliferation was measured by using Cell Titer-Glo Luminescent Cell Viability Assay (Promega, Wis., USA,). The CellTiter-Glo Luminescent Cell Viability Assay is a homogeneous method of determining the number of viable cells in culture based on quantitation of the ATP present, which signals the presence of metabolically active cells. Colo205 cells (American Type Culture Collection) were sown at 3.0×10^3 cells/well to a 96 well microplate and cultured in an incubator (37° C., 5% carbon dioxide). On the following day, 100 μl of a solution of each test compound, which was previously diluted, was added. According to the instruction manual from vender, cellular ATP content of final treatment day was measured. After incubation for 3 days, solution of Cell Titer-Glo Luminescent Cell Viability Assay was added to each well and incubated for approximately 15 min at room temperature. Luminescence of each well was measured by ARVO Light (PerkinElmer Inc., MA, USA). Taking as 100% the ATP content for the none compound treatment control group, the ratio of the residual ATP content for each treatment group was determined.
# [2] = target: T1, cdc7/Dbf4 (Homo sapiens, UniProt O00311); assay: Determination of cdc7 kinase inhibitory activity (HTRF Transcreener ADP assay); type: biochemical; conditions: test compound 1 μM; 1.0 μM ATP, 10 μg/ml MCM2, 0.1 μg/ml cdc7/Dbf4, 90 min at room temperature; read-out: Inhibitory rate (%) at 1 μM
# T1 construct: Full-length cdc7 co-expressed with full-length Dbf4; purchased Carna Bioscience, Inc. (Kobe, Japan)
# T1 sequence (O00311 whole entry): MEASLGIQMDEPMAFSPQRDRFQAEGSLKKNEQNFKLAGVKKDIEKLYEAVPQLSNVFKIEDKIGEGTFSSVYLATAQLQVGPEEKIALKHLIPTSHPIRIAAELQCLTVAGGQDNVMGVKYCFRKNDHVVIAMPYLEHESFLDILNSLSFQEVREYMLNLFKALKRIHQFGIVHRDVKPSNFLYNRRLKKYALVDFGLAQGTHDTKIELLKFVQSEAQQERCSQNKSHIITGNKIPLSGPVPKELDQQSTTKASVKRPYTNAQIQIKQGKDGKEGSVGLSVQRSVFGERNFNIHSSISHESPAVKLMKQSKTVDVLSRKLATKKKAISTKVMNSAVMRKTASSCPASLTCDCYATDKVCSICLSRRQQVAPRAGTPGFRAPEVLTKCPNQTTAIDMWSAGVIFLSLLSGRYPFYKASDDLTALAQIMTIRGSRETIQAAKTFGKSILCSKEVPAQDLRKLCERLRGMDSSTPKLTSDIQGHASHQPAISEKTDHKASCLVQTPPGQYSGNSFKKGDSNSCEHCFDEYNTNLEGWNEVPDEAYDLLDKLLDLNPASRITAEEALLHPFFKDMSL
# T1 sequence (Q9UBU7 whole entry partner): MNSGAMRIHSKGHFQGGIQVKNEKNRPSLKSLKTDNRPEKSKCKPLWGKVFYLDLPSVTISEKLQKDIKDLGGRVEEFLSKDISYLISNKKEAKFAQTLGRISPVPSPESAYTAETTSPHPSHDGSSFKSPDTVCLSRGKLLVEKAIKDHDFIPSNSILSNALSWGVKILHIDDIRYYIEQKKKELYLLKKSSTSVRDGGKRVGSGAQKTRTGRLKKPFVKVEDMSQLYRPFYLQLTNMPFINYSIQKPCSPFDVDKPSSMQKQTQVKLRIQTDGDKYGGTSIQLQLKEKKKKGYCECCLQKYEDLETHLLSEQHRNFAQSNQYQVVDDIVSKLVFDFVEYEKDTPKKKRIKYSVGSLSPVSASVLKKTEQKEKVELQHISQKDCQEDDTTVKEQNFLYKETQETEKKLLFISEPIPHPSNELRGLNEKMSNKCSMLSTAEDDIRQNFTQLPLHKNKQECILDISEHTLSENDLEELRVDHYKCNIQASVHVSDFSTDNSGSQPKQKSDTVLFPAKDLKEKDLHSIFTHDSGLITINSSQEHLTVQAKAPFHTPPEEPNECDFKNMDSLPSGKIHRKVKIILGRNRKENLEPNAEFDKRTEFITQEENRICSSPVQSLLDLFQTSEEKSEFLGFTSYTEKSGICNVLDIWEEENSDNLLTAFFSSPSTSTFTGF
# Experimental: Full-length cdc7 co-expressed with full-length Dbf4 was purchased from Carna Bioscience, Inc. (Kobe, Japan). Homogeneous time-resolved fluorescence (HTRF) Transcreener ADP assay (Cisbio Inc., MA., U.S.A.) was used for detecting cdc7/Dbf4 kinase activity. Reactions were performed in kinase buffer (20 mM HEPES, pH 7.5, 10 mM magnesium acetate, 1 mM dithiothreitol) containing 1.0 μM ATP, 10 μg/ml MCM2, 0.1 μg/ml cdc7/Dbf4 for 90 min at room temperature. Free ADP from the ATP hydrolysis reaction was detected by the monoclonal ADP antibody labeled with Eu^3+-Cryptate, which competes with both native ADP and d2-coupled ADP. The TR-FRET signal was detected by EnVision (PerkinElmer Inc., MA, U.S.A.). Cdc7 kinase inhibitory rate (%) of the test compound was calculated by the following formula: Inhibitory rate(%)=(1−(count of test compound−blank)÷(control−blank))×100
# The count of the solution reacted without addition of the compound was used as a “control”, and the count of the solution without the compound and cdc7/Dbf4 was used as a “blank”.
Structure (SMILES),inhibition at 1 µM [2] [%],inhibition at 1 µM [1] [%]
"CCN1c2cc(-c3cn[nH]c3C)sc2C(=O)NC1(C)C [Example 114, 1-ethyl-2,2-dimethyl-6-(5-methyl-1H-pyrazol-4-yl)-2,3-dihydrothieno[3,2-d]pyrimidin-4(1H)-one]",–,67.4
"Cc1[nH]ncc1-c1cc2c(s1)C(=O)NC1(CCCCC1F)N2 (stereo not shown) [Example 122, 2-fluoro-6′-(5-methyl-1H-pyrazol-4-yl)-1′H-spiro [cyclohexane-1,2′-thieno[3,2-d]pyrimidin]-4′(3′H)-one]",91.8,48.9
"CCN1c2cc(-c3ccncc3)sc2C(=O)NC1(C)C [Example 15, 1-ethyl-2,2-dimethyl-6-(pyridin-4-yl)-2,3-dihydrothieno[3,2-d]pyrimidin-4(1H)-one]",97.6,–
"Cc1[nH]ncc1-c1cc2c(s1)C(=O)NC(C)(C)N2CC(F)F [Example 115, 1-(2,2-difluoroethyl)-2,2-dimethyl-6-(5-methyl-1H-pyrazol-4-yl)-2,3-dihydrothieno[3,2-d]pyrimidin-4(1H)-one]",–,66.1
"CCN1c2cc(-c3ccncc3)sc2C(=O)NC12CCCC2 [Example 27, 1′-ethyl-6′-(pyridin-4-yl)-1′H-spiro [cyclopentane-1,2′-thieno[3,2-d]pyrimidin]-4′(3′H)-one]",101,59.6

# The next lines start with results.
inhibition at 1 µM [2] [%],Structure (SMILES),inhibition at 1 µM [1] [%]
104,"CC1(C)NC(=O)c2sc(-c3cn[nH]c3)cc2N1 [Example 34, 2,2-dimethyl-6-(1H-pyrazol-4-yl)-2,3-dihydrothieno[3,2-d]pyrimidin-4(1H)-one]",–
101,"Cc1[nH]ncc1-c1cc2c(s1)C(=O)NC(C)(CC(F)(F)F)N2C (stereo not shown) [Example 104, 1,2-dimethyl-6-(5-methyl-1H-pyrazol-4-yl)-2-(2,2,2-trifluoroethyl)-2,3-dihydrothieno[3,2-d]pyrimidin-4(1H)-one]",62.9
98.5,"O=C1NC2(CCCCC2)Nc2cc(-c3ccncc3)sc21 [Example 6, 6′-(pyridin-4-yl)-1′H-spiro[cyclohexane-1,2′-thieno[3,2-d]pyrimidin]-4′(3′H)-one]",–
103,"O=C1NC2(CCN(C(=O)OCc3ccccc3)CC2)Nc2cc(-c3ccncc3)sc21 [Example 9, benzyl 4′-oxo-6′-(pyridin-4-yl)-3′,4′-dihydro-1′H-spiro[piperidine-4,2′-thieno[3,2-d]pyrimidine]-1-carboxylate]",–
97.1,"CC1(CC(F)(F)F)NC(=O)c2sc(-c3ccncc3)cc2N1 (stereo not shown) [Example 22, 2-methyl-6-(pyridin-4-yl)-2-(2,2,2-trifluoroethyl)-2,3-dihydrothieno[3,2-d]pyrimidin-4(1H)-one]",–
